Assay results from patent publication US11147272B2, “Pyridone compounds and agricultural and horticultural fungicides comprising the same as active ingredients” (MITSUI CHEMICALS AGRO, INC., priority 2017, dated 2021).

Assays:
Plasmopara viticola = experiment: Test Example G: Downy mildew on vine; settings: for Test G control value class: Downy mildew on vine (Neomuscat), 2.5 ml/pot, assessed 7 to 10 days after inoculation; for Test G control value: 7 to 10 days after inoculation
Phytophthora infestans = experiment: whole plant or invertebrate; format: in vivo; settings: for Test F control value class: class of control value
Alternaia brassicicola = experiment: Test Example C: Alternaria sooty spot on cabbage; format: in vivo
From the text: Seeds of a test plant (cabbage variety: Shikidori) were planted and cultivated until the cotyledons extended.
<Control Value> Control value=100{1−(n/3)}

Puccinia recondita = experiment: Test Example E: Brown rust on wheat; format: in vivo
Magnaporthe grisea = experiment: whole plant or invertebrate; format: in vivo; settings: for Test A control value class: class of control value
Botrytis cinerea = experiment: Test Example B: Gray mold on tomato; settings: for Test B control value class: class of control value
[1] = system: Colletotrichum orbiculare; experiment: Test Example H: Anthracnose on cucumber; settings: for Test H control value class: Anthracnose on cucumber (Sagami Hanjiro), 2.5 ml/pot, assessed 6 to 10 days after inoculation; for Test H control value: 6 to 10 days after inoculation
[2] = system: Blumeria graminis f. sp. hordei; experiment: Test Example D: Powdery mildew on barley; settings: for Test D control value class: class of control value
[3] = Alternaria sooty spot on cabbage, class of control value
[4] = Brown rust on wheat, class of control value
[5] = 250 ppm drug solution sprayed (2.5 ml/pot), grape Neomuscat
[6] = 250 ppm drug solution sprayed on test plant
[7] = 250 ppm drug solution sprayed (2.5 ml/pot), cucumber Sagami Hanjiro
[8] = Downy mildew on vine, 250 ppm spray
[9] = Late blight on tomato, control value class
[10] = Alternaria sooty spot on cabbage, control value class
[11] = Brown rust on wheat, control value class
[12] = Blast on rice, control value class
[13] = Gray mold on tomato, control value class
[14] = Anthracnose on cucumber, 250 ppm spray
[15] = Powdery mildew on barley, control value class

| Compound | Test G control value class (Plasmopara viticola; 250 ppm spray) | Test F control value class (Phytophthora infestans; Late blight on tomato) | Test C control value class (Alternaia brassicicola; [3]) | Test E control value class (Puccinia recondita; [4]) | Test A control value class (Magnaporthe grisea; Blast on rice) | Test B control value class (Botrytis cinerea; Gray mold on tomato) | Test H control value class ([1]; 250 ppm spray) | Test D control value class ([2]; Powdery mildew on barley) | Test G control value (Plasmopara viticola; [5]) | Test F control value (Phytophthora infestans; [6]) | Test C control value (Alternaia brassicicola; [6]) | Test E control value (Puccinia recondita; [6]) | Test A control value (Magnaporthe grisea; [6]) | Test B control value (Botrytis cinerea; [6]) | Test H control value [1, 7] | Test D control value [2, 6] | also measured |
| --- | --- | --- | --- | --- | --- | --- | --- | --- | --- | --- | --- | --- | --- | --- | --- | --- | --- |
| CCn1c(-c2c(F)cc(OC)cc2F)c(C(C)(OC)C(C)C)cc(Cl)c1=O (racemic) [compound 110] | H (more than 50% control value) | L (50% or less control value) | H (more than 50% control value) | H (more than 50% control value) | H (more than 50% control value) | H (more than 50% control value) | H (more than 50% control value) | H (more than 50% control value) | – | – | – | – | – | – | – | – | – |
| CCCc1cc(Br)c(=O)n(C)c1-c1ccc(F)cc1Br [compound 415] | – | – | – | – | – | – | – | – | L (50% or less control value) | L (50% or less control value) | H (more than 50% control value) | H (more than 50% control value) | H (more than 50% control value) | H (more than 50% control value) | L (50% or less control value) | L (50% or less control value) | – |
| CCn1c(-c2c(F)cc(F)cc2F)c(C(C)(O)C2CC2)cc(Cl)c1=O (centres unmarked) [compound 261] | – | – | – | – | – | – | – | – | – | – | – | – | – | – | – | – | Test G control value (Plasmopara viticola; [8]): H (more than 50% control value); Test F control value (Phytophthora infestans; [9]): L (50% or less control value); Test C control value (Alternaia brassicicola; [10]): H (more than 50% control value); Test E control value (Puccinia recondita; [11]): H (more than 50% control value); Test A control value (Magnaporthe grisea; [12]): H (more than 50% control value); Test B control value (Botrytis cinerea; [13]): H (more than 50% control value); Test H control value [1, 14]: H (more than 50% control value); Test D control value [2, 15]: H (more than 50% control value) |
| CCc1cc(Cl)c(=O)n(C)c1-c1ccc(OC)cc1Br [compound 357] | – | – | – | – | – | – | – | – | – | – | – | – | – | – | – | – | Test G control value (Plasmopara viticola; [8]): L (50% or less control value); Test F control value (Phytophthora infestans; [9]): L (50% or less control value); Test C control value (Alternaia brassicicola; [10]): L (50% or less control value); Test E control value (Puccinia recondita; [11]): H (more than 50% control value); Test A control value (Magnaporthe grisea; [12]): H (more than 50% control value); Test B control value (Botrytis cinerea; [13]): H (more than 50% control value); Test H control value [1, 14]: H (more than 50% control value); Test D control value [2, 15]: L (50% or less control value) |
| C#CCOc1cc(F)c(-c2c(CCC)cc(Cl)c(=O)n2CC)c(F)c1 [compound 463] | – | – | – | – | – | – | – | – | H (more than 50% control value) | L (50% or less control value) | H (more than 50% control value) | H (more than 50% control value) | H (more than 50% control value) | H (more than 50% control value) | H (more than 50% control value) | H (more than 50% control value) | – |
| CCCc1cc(Cl)c(=S)n(CC)c1-c1c(F)cc(F)cc1F [compound 430] | – | – | – | – | – | – | – | – | L (50% or less control value) | L (50% or less control value) | H (more than 50% control value) | H (more than 50% control value) | H (more than 50% control value) | H (more than 50% control value) | H (more than 50% control value) | H (more than 50% control value) | – |
| CCn1c(-c2c(F)cc(F)cc2F)c(C(C)(O)C(C)C)cc(Cl)c1=O (racemic) [compound 106] | H (more than 50% control value) | H (more than 50% control value) | H (more than 50% control value) | H (more than 50% control value) | H (more than 50% control value) | H (more than 50% control value) | H (more than 50% control value) | H (more than 50% control value) | – | – | – | – | – | – | – | – | – |
| CCn1c(-c2c(F)cc(OC)cc2F)c(C(OC)C(C)C)cc(Br)c1=O (centres unmarked) [compound 503] | – | – | – | – | – | – | – | – | H (more than 50% control value) | L (50% or less control value) | H (more than 50% control value) | H (more than 50% control value) | H (more than 50% control value) | H (more than 50% control value) | H (more than 50% control value) | H (more than 50% control value) | – |
| CCCc1ccc(=O)n(C)c1-c1ccc(F)cc1C [compound 419] | – | – | – | – | – | – | – | – | L (50% or less control value) | L (50% or less control value) | H (more than 50% control value) | L (50% or less control value) | L (50% or less control value) | L (50% or less control value) | H (more than 50% control value) | L (50% or less control value) | – |
| CCn1c(-c2ccc(F)cc2Cl)c(C2CCCCC2)cc(Br)c1=O [compound 182] | L (50% or less control value) | L (50% or less control value) | H (more than 50% control value) | H (more than 50% control value) | H (more than 50% control value) | H (more than 50% control value) | L (50% or less control value) | H (more than 50% control value) | – | – | – | – | – | – | – | – | – |
| CCn1c(-c2ccc(OC)cc2F)c(CC(C)C)cc(Br)c1=O [compound 116] | H (more than 50% control value) | L (50% or less control value) | H (more than 50% control value) | H (more than 50% control value) | H (more than 50% control value) | H (more than 50% control value) | H (more than 50% control value) | H (more than 50% control value) | – | – | – | – | – | – | – | – | – |
| CCCCCCc1ccc(=O)n(CC)c1-c1ccc(F)cc1Cl [compound 291] | – | – | – | – | – | – | – | – | – | – | – | – | – | – | – | – | Test G control value (Plasmopara viticola; [8]): L (50% or less control value); Test F control value (Phytophthora infestans; [9]): L (50% or less control value); Test C control value (Alternaia brassicicola; [10]): L (50% or less control value); Test E control value (Puccinia recondita; [11]): H (more than 50% control value); Test A control value (Magnaporthe grisea; [12]): L (50% or less control value); Test B control value (Botrytis cinerea; [13]): L (50% or less control value); Test H control value [1, 14]: H (more than 50% control value); Test D control value [2, 15]: H (more than 50% control value) |
| CCn1c(-c2c(F)cccc2F)c(C=O)cc(Cl)c1=O [Compound No. 20, 5-chloro-2-(2,6-difluorophenyl)-1-ethyl-6-oxo-1,6-dihydropyridine-3-carb aldehyde] | – | – | – | – | – | – | – | – | – | – | – | – | – | – | – | – | pest or weed control at 250 ppm (Plasmopara viticola; Plasmopara viticola, topical, read-out: Test G control value class): > 50%; pest or weed control at 250 µg/mL (Phytophthora infestans; Phytophthora infestans, in Solanum lycopersicum, topical, read-out: Test F control value class): < 50%; pest or weed control at 250 µg/mL (Alternaia brassicicola; Brassica oleracea, topical, Alternaria sooty spot on cabbage, class of control value, read-out: Test C control value class): < 50%; pest or weed control at 250 µg/mL (Puccinia recondita; Puccinia recondita, topical, Brown rust on wheat, class of control value, read-out: Test E control value class): > 50%; pest or weed control at 250 µg/mL (Magnaporthe grisea; Pyricularia oryzae, in Oryza sativa, read-out: Test A control value class): > 50%; pest or weed control at 250 µg/mL (Botrytis cinerea; Botrytis cinerea, in Solanum lycopersicum, topical, read-out: Test B control value class): > 50%; pest or weed control at 250 ppm ([1]; Colletotrichum orbiculare, in Cucumis sativus, topical, read-out: Test H control value class): < 50%; pest or weed control at 250 µg/mL ([2]; Blumeria graminis, in Hordeum vulgare, topical, read-out: Test D control value class): < 50% |
